Assay results from paper PMC8725537, “Assessment of NSAIDs as potential inhibitors of the fatty acid amide hydrolase I (FAAH-1) using three different primary fatty acid amide substrates in vitro” (BMC Pharmacology & Toxicology, 2022).
Like-named read-outs stand apart in the source and are kept apart here.

Tests used:
FAAH-1 [1] = target: T1, FAAH-1 (Rattus norvegicus, UniProt P97612); experiment: Inhibition of rat liver FAAH-1 oleamide hydrolase activity by NSAIDs (500 μM screen and concentration-inhibition curves); type: biochemical; conditions: for FAAH-1 oleamide hydrolase activity, % of control: 500 μM NSAID, oleamide substrate, rat liver
T1 construct: Liver obtained from male Wister rats; from tissue; host or cells: rat liver homogenate, 20,000 g membrane pellet (male Wistar rats, Charles River Laboratories)
T1 sequence (P97612 1-579): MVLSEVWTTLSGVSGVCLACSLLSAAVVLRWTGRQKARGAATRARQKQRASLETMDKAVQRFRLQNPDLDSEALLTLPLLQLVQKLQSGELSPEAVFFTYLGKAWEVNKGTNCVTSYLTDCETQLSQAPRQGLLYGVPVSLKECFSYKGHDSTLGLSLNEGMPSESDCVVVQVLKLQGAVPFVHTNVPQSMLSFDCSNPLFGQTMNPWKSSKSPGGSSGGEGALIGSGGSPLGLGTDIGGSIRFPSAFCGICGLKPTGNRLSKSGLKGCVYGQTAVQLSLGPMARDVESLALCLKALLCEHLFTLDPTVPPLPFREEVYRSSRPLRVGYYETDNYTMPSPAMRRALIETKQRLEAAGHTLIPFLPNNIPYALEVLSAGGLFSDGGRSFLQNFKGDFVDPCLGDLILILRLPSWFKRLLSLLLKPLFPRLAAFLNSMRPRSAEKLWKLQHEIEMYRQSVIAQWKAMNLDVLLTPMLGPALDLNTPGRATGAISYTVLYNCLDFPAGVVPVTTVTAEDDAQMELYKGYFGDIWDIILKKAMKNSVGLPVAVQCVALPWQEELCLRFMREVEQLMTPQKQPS
Procedure: (§1) FAAH-1 activity was studied in rat liver homogenate.
(§2) Liver obtained from male Wister rats (150–250 g, Charles River Laboratories, Wilmington, USA) which had been stored at − 40 °C was thawed. A volume of 6 ml/g wet weight of rat liver was homogenized in 0.2 M potassium phosphate buffer, pH 7.4 using a hand held homogenizer (Ultra-turrax) (Merck KGaA, Darmstadt, Germany). The resulting mixture was centrifuged at 250 g for 10 min after which the pellet obtained was re-homogenised and centrifuged as aforementioned. The supernatants were combined and centrifuged at 20,000 g for 30 min, after which the membrane containing pellet was re-suspended in 1:1^w/v 0.2 M potassium phosphate buffer, pH 7.4, and stored in 1 ml aliquots at − 40 °C.
FAAH-1 activity was assayed essentially as described previously. Briefly, rat liver homogenate was pre-incubated at 37 °C with shaking (50 × 10 rpm) for 10 min in 0.2 M phosphate buffer, pH 7.4 in 96-well microtitre plates (Thermo Scientific Inc., Waltham, USA) prior to substrate addition and incubation at 37 °C for 30 min. […] Substrate blank and a control containing 0.2 M phosphate buffer, pH 7.4, were incorporated into the experiments.
(§3) Effect of 500 μM concentration of NSAIDs (SIGMA-ALDRICH, Poole, UK) on each enzyme activity was analysed by removing the baseline line. Each specific activity was then plotted as percentage of control. Specific activity obtained at each inhibitor concentration for the concentration-inhibition curves were normalized and analysed using the inbuilt log (inhibitor) versus response variable slope (robust fit) and were constrained at the bottom (= 0.0%). Each specific activity was then plotted as percentage of the control. To determine the mode of inhibition, Vmax values were initially extrapolated from the (NH4)2SO4 standard curve plotted using the inbuilt second order polynomial (quadratic) Michaelis-Menten enzyme kinetics. These values were then adjusted using the protein concentrations of the preparations obtained from the Lowry protocol (Fig. SS1 and SS2).

FAAH-1 [2] = target: T1, FAAH-1; experiment: Rat liver FAAH-1 hydrolysis of primary fatty acid amide substrates (Michaelis-Menten, OPA fluorescence ammonia assay); type: biochemical; conditions: for Km / Vmax: rat liver FAAH-1, compound as substrate, pH 7.4, mean ± SEM n = 4
Procedure: as §1, §2
(§4) FAAH-1 activity was assayed essentially as described previously. Briefly, rat liver homogenate was pre-incubated at 37 °C with shaking (50 × 10 rpm) for 10 min in 0.2 M phosphate buffer, pH 7.4 in 96-well microtitre plates (Thermo Scientific Inc., Waltham, USA) prior to substrate addition and incubation at 37 °C for 30 min. The 100 μl total assay reaction mixtures were halted with an equivalent volume of o-phthaldehyde (OPA) developing solution (0.4 M potassium phosphate buffer, pH 11.5) and incubated further at 37 °C for 15 min before assessing fluorescence using a FLUOstar Galaxy (Excitation 390 nm, Emission 450–10 nm) (BMG LABTECH GmbH, Ortenberg, Germany). Substrate blank and a control containing 0.2 M phosphate buffer, pH 7.4, were incorporated into the experiments.
as §3, with “Data obtained were entered into a Microsoft Excel 2010 spread sheet and analysed with GraphPad Prism computer software programme (GraphPad Software Inc., San Diego, CA USA). Effect” for “Effect”
Fig. 1 Hydrolysis of oleamide (a), arachidonamide (b) and stearoylamide (c) by rat liver FAAH-1 activity. Rat liver FAAH-hydrolytic activity of each primary amide substrate in vitro, was assayed by quantification of ammonia released after hydrolysis. Ammonia generated in the presence of sulphite ions is reacted with alkaline o-phthaldehyde (OPA) to generate the stable fluorescent isoindole derivative (1-sulphonatoisoindole) which is quantified by fluorescent spectroscopy. Four separate experiments with three replicates on the same microtiter plate were conducted for each substrate using different rat liver preparations. Data are mean ± SEM (Standard Error of the Mean) of four separate preparations (n = 4) conducted in triplicate

FAAH-1 [3] = target: T1, FAAH-1; experiment: Mode of inhibition of rat liver FAAH-1 hydrolysis of oleamide and arachidonamide (Michaelis-Menten with inhibitor); type: biochemical; conditions: for Vmax (nmol/min/mg protein): Control (no inhibitor), compound as substrate; for Mode of inhibition of FAAH activity: Michaelis-Menten analysis, oleamide and arachidonamide substrates
Procedure: as §4
as §3, with “Data obtained were entered into a Microsoft Excel 2010 spread sheet and analysed with GraphPad Prism computer software programme (GraphPad Software Inc., San Diego, CA USA). Effect” for “Effect”
Unlike aspirin which is an irreversible inhibitor of COX enzymes, most other NSAIDs are reversible competitive inhibitors of the COX enzymes.
Data are mean ± SEM (Standard Error of the Mean) of four separate preparations (n = 4) conducted in triplicate

rat brain FAAH-1 = tested on: rat brain FAAH-1; parameters: method as in PMID 23240907; conditions: rat brain FAAH-1, pH 7.4 ref 52; cited from earlier work
rat recombinant FAAH = tested on: rat recombinant FAAH; parameters: method as in PMID 10571985; conditions: pH 9, oleamide hydrolysis ref 45; read-out: affinity (Km); cited from earlier work
FAAH-1 in rat brain = tested on: FAAH-1 in rat brain; parameters: method as in ref 41 = [41]; 41. Garle MJ, Clark JS and Alexander SPH. A fluorescence-derivatisation assay for fatty acid amide hydrolase activity. 2005; pA2 Online. E-journal of the British Pharmacological Society.; conditions: oleamide hydrolysis, rat brain ref 41; cited from earlier work
[4] = tested on: FAAH-1 in rat liver preparations; conditions: cited from earlier work
FAAH = tested on: FAAH; parameters: method as in ref 68 = [68]; 68. Dongdem JT Dawson SP Alexander SPH Characterization of [3-(3-carbamoylphenyl) phenyl] N-cyclohexyl carbamate, an inhibitor of FAAH: effect on rat liver FAAH and HEK293T-FAAH-2 deamination of oleam; conditions: cited from earlier work
[5] = rat liver oleamide hydrolase activity, NSAID 4.0 × 10^-6 to 1.024 × 10^-3 M in absolute ethanol, n = 4

Compound: CC(=O)Nc1ccc(O)cc1 [Acetaminophen]
- FAAH-1 oleamide hydrolase activity, % of control (FAAH-1 [1]): appeared to enhance enzyme activity

Compound: CCCCC/C=C\C/C=C\C/C=C\C/C=C\CCCC(N)=O [Arachidonamide]
- FAAH-1 capacity (Vmax) higher compared with oleamide (FAAH-1 [2]; rat liver FAAH-1): 12%
- FAAH-1 capacity (Vmax) higher than that for stearoylamide (FAAH-1 [2]; rat liver FAAH-1): 75%
- Km (FAAH-1 [2]): 44.9 ± 7 µM
- Vmax (FAAH-1 [2]): 10.1 ± 3.0 nmol/min/mg protein
- Vmax (nmol/min/mg protein) (FAAH-1 [3]): 8.4 ± 1.2 nmol/min/mg protein

Compound: CC(C(=O)O)c1ccc2c(c1)[nH]c1ccc(Cl)cc12 (stereo not drawn) [Carprofen]
- pIC50 (rat brain FAAH-1): 4.10
- FAAH-1 oleamide hydrolase activity, % of control (FAAH-1 [1]): below 50 % of control

Compound: O=C(O)Cc1ccccc1Nc1c(Cl)cccc1Cl [Diclofenac]
- FAAH-1 oleamide hydrolase activity, % of control (FAAH-1 [1]): below 50 % of control
- IC50 (FAAH-1 [1]; [5]): 1260 µM

Compound: O=C(O)c1cc(-c2ccc(F)cc2F)ccc1O [Diflunisal]
- FAAH-1 oleamide hydrolase activity, % of control (FAAH-1 [1]): below 50 % of control
- IC50 (FAAH-1 [1]; [5]): 708 µM

Compound: Cc1c(N(C)CS(=O)(=O)[O-])c(=O)n(-c2ccccc2)n1C.[Na+] [Dipyrone]
- pIC50 (M) (FAAH-1 [1]; [5]): 2.77 ± 0.07 M

Compound: CC(C)Cc1ccc(C(C)C(=O)O)cc1 (stereo not drawn) [Ibuprofen]
- pIC50 (rat brain FAAH-1): 3.1

Compound: COc1ccc2c(c1)c(CC(=O)O)c(C)n2C(=O)c1ccc(Cl)cc1 [Indomethacin]
- pIC50 (rat brain FAAH-1): 4.18
- Mode of inhibition of FAAH activity (FAAH-1 [3]): non-competitive type inhibition
- Vmax (nmol/min/mg protein) in presence of inhibitor (FAAH-1 [3]; substrate arachidonamide, + 200 μM inhibitor): 7.2 ± 0.9 nmol/min/mg protein
- Vmax (nmol/min/mg protein) in presence of inhibitor (FAAH-1 [3]; substrate oleamide, + 200 μM inhibitor): 3.8 ± 0.4 nmol/min/mg protein

Compound: O=C(c1ccccc1)c1ccc2n1CCC2C(=O)O (stereo not drawn) [Ketorolac]
- FAAH-1 oleamide hydrolase activity, % of control (FAAH-1 [1]): below 50 % of control
- IC50 (FAAH-1 [1]; [5]): 1230 µM

Compound: Cc1ccc(Cl)c(Nc2ccccc2C(=O)O)c1Cl [Meclofenamic acid]
- FAAH-1 oleamide hydrolase activity, % of control (FAAH-1 [1]): complete inhibition
- IC50 (FAAH-1 [1]; [5]): 269 µM
- Mode of inhibition of FAAH activity (FAAH-1 [3]): non-competitive type inhibition
- Vmax (nmol/min/mg protein) in presence of inhibitor (FAAH-1 [3]; substrate arachidonamide, + 100 μM inhibitor): 6.7 ± 1.0 nmol/min/mg protein
- Vmax (nmol/min/mg protein) in presence of inhibitor (FAAH-1 [3]; substrate oleamide, + 100 μM inhibitor): 2.9 ± 0.1 nmol/min/mg protein

Compound: CCCCCCCC/C=C\CCCCCCCC(N)=O [Oleamide]
- Vmax (FAAH-1 [2]): 8.9 ± 1.1 nmol/min/mg protein
- Km (FAAH-1 [2]; read-out: Km): 177 ± 15.5 µM
- Km (rat recombinant FAAH): 37 ± 7 µM
- Vmax (nmol/min/mg protein) (FAAH-1 [3]): 4.6 ± 0.5 nmol/min/mg protein
- Km (FAAH-1 in rat brain): 179 µM
- Vmax ([4]; oleamide hydrolysis, rat liver preparations ref 41): 15 nmol.min^− 1.mg protein^− 1
- Km ([4]; oleamide hydrolysis, rat liver preparations ref 41, read-out: Km): 129 µM
- Vmax ([4]; rat liver FAAH-catalysed oleamide hydrolysis ref 44): 5.7 nmol.min^− 1.mg protein^− 1
- Km ([4]; rat liver FAAH-catalysed oleamide hydrolysis ref 44, read-out: affinity (Km)): 104 µM

Compound: CCCCCCCCCCCCCCCCCC(N)=O [Stearoylamide]
- Vmax (FAAH-1 [2]): 2.5 ± 0.6 nmol/min/mg protein
- Km (FAAH-1 [2]; read-out: Km): 4.6 ± 0.8 µM

Compound: CC1=C(CC(=O)O)c2cc(F)ccc2/C1=C\c1ccc(S(C)(=O)=O)cc1 [Sulindac sulphone]
- IC50 (FAAH-1 [1]; [5]): 447 µM

Compound: CC1=C(CC(=O)O)c2cc(F)ccc2/C1=C\c1ccc([S+](C)[O-])cc1 (stereo not drawn) [Sulindac]
- FAAH-1 oleamide hydrolase activity, % of control (FAAH-1 [1]): below 50 % of control
- IC50 (FAAH-1 [1]; [5]): 224 µM

Compound: NC(=O)c1cccc(-c2cccc(OC(=O)NC3CCCCC3)c2)c1 [URB597]
- Mode of FAAH inhibition (FAAH): uncompetitive

Compound: Cc1onc(-c2ccccc2)c1-c1ccc(S(N)(=O)=O)cc1 [Valdecoxib]
- IC50 (FAAH-1 [1]; [5]): 1000 µM

Compound: CC(=O)Oc1ccccc1C(=O)O [acetyl salicylic acid]
- FAAH-1 oleamide hydrolase activity, % of control (FAAH-1 [1]): appeared to enhance enzyme activity

Compound: CCO [ethanol]
- FAAH-1 activity (%) (basal oleamide hydrolysis, % of control) (FAAH-1 [1]; 15% assay ethanol): 95 ± 1%
- FAAH-1 activity (%) (basal oleamide hydrolysis, % of control) (FAAH-1 [1]; 20% assay ethanol): 78 ± 1%
- FAAH-1 activity (%) (basal oleamide hydrolysis, % of control) (FAAH-1 [1]; 25% assay ethanol): 76 ± 4%
